The source of these data is patent US20070082910A1, “Specific nad(p)h oxidase inhibitor” (Mitsubishi Pharma Corporation, priority 2003, published 2007).

As a reminder, the IC50 is the concentration that inhibits the measured activity by half. The low end stands for inhibition by little substance, the high end for a need for much substance.

Marks after values point to notes of the source that are not given here.

The test system of experiment [1] is NAD(P)H oxidase in normal rat aorta. Description: Effect on normal rat NAD(P)H oxidase (superoxide anion production in aorta after administration). Particulars: 10 mg/kg for 3 days. Format: in vivo. The procedure:
The test compound (10 mg/kg) was administered to normal male Wistar rats (Japan SLC) for 3 days, and the production amount of superoxide anion in the aorta was measured in the same manner as in Experimental Example 2.
The inhibitory rate (%) was calculated by the following formula: inhibitory rate (%)=100−(A/B)×100 wherein A is the standardized chemiluminescence value of the rats administered with the test compound, and B is the standardized chemiluminescence value of the rats without administration of the test compound (control group).

The subject of experiment [2] is rabbit myocardial infarction model. Briefly: Rabbit ischemia-reperfusion myocardial infarction model. Particulars: 1 mg/kg 1 hr before ligation; normal group as 100%. Format: in vivo. The text has this: Male NZW rabbits (Japan SLC) were fixed in the dorsal position and subjected to thoracotomy with pentobarbital anesthesia. A silk thread (No. 4) was applied to the proximal left coronary artery, a polyethylene tube (length 1 cm) was further applied and the left coronary artery was ligated using a thread. After 2 hr from the ligation, the thread on the polyethylene tube was cut to reperfusion. After 4 hr from the reperfusion, the proximal coronary artery was ligated using a silk thread (No. 4), and 3% Evans blue solution (1 mL/kg) was intravenously administered. After 5 min, an excess pentobarbital was administered and the heart and aorta were removed. The heart was cut into a 3 mm-wide annular shape, and the left ventricle area and ischemia region (Evans blue unstained region) were traced.
After incubation in 1% TTC solution for 30 min, an infarction focus (TTC unstained region) was traced. Compound A (1 mg/kg) was administered 1 hr before the ligation.
The ratios of the ischemic region and infarction focus to the left ventricle area were calculated. […]
This suspension was centrifuged at 3000 rpm for 10 min, and the supernatant (8 mL) was centrifuged at 15000 rpm for 15 min. The obtained supernatant was mixed with phosphate buffer containing o-dianisidine dihydrochloride, kept at 25° C. for 30 min, the absorbance (OD460) was measured, and the myeloperoxidase (MPO) activity was determined. […]

Experiment [3] concerns NAD(P)H oxidase in diabetic rat aorta. Briefly: Aorta NAD(P)H oxidase inhibitory effect, test compound added to aorta ring specimen in vitro. It is filed as biochemical. To be noted: for chemiluminescence (×10^5 RLU/wet weight of aorta): mean ± standard error. The procedure: This ring specimen was preincubated in Krebs-Hepes buffer containing the test compound (compound A, compound B or DPI (SIGMA)) at 37° C. for 10 min, and then transferred to Krebs-Hepes buffer containing 0.25 mM lucigenin. […] The total value of chemiluminescence was calculated from AUC of the curve drawn by plotting the chemiluminescence value (vertical axis) relative to the measurement time (horizontal axis). The obtained chemiluminescence value was divided by the wet weight of the vascular ring specimen and standardized to the superoxide anion production per aorta unit weight.

For experiment [4], the system named is NAD(P)H oxidase. Description: IL-8 production inhibitory effect in HUVEC cultured with 44 mM glucose. Format: cell-based, human. Particulars: for inhibitory rate (%) of IL-8 production: 8 days. How it is done:
NAD(P)HOxidase Inhibitory Effect (Method)
44 mM glucose was added to Human Umbilical Vein Endothelial Cells (Bio Whittaker, hereinafter to be indicated as “HUVEC”), and cells were cultured for 8 days. Then, a lysis buffer containing a surfactant, Triton-X Nonidet P-40, was added, and interleukin-8 (hereinafter to be indicated as “IL-8”) in the cell lysate, which had been produced by NAD(P)H oxidase was measured by an enzyme-linked […]. The test compound was added one day before glucose addition.
The inhibitory rate was calculated from the following formula: inhibitory rate (%)=100−[(A−C)/(B−C)]×100
wherein A is IL-8 production of a cell cultured in the presence of 44 mM glucose with addition of the test compound, B is IL-8 production of a cell cultured in the presence of 44 mM glucose without addition of the test compound, and C is IL-8 production of a cell cultured in the absence of 44 mM glucose and the test compound. The IC50 value was calculated from the dose-effect line drawn by the least squares method based on the obtained inhibitory rate.

For experiment [5], the system named is NAD(P)H oxidase in diabetic rat aorta. Description: NAD(P)H oxidase activity (superoxide anion production, lucigenin chemiluminescence) in aorta of streptozotocin diabetic rats after oral administration. Format: in vivo. To be noted: for inhibitory rate (%), NAD(P)H oxidase in diabetic rat aorta: once a day for 3 days. How it is done:
Streptozotocin (40 mg/kg) dissolved in 0.05 M citric acid buffer (pH 4.5) was administered into the tail vein of male Wistar rats (Japan SLC) to prepare diabetic rats. At 1 week to 8 weeks from the intravenous injection of streptozotocin, blood was drawn from the tail vein using a capillary treated with heparin, which was immediately cooled with ice and centrifuged at 3000 rpm, 15 min, 4° C. to give serum. The blood glucose level was measured by enzyme assay using a glucose measurement kit “GLU neo sinotest” (sinotest) and a microplate reader (SPECTRA MAX250, Molecular Devices).
The NAD(P)H oxidase activity was measured by the following method, which was modified by the method of the David. G. Harrison et al. (J. Clin. Invest. 91, 2546-2551, 1993), at 4 days from the start of the test, with superoxide anion production in aorta as an index.
To be specific, normal rat or diabetic rat free of the above-mentioned treatment was exsanguinated from the abdominal aorta, their thoracic aorta was removed. The removed thoracic aorta was immersed in Krebs-Hepes buffer and marginal tissues were removed to prepare an about 5 mm ring specimen. This ring specimen was preincubate in Krebs-Hepes buffer at 37° C. for 10 min and transferred to Krebs-Hepes buffer containing 0.25 mM lucigenin (SIGMA). 500 μM NADH (SIGMA) was added and chemiluminescence value (chemiluminescence: unit RLU: relative light units) was measured using a luminometer (MULTI-BIOLUMAT LB9505C, Warrack.Berthold) at 37° C. for 10 min. The total value of chemiluminescence was calculated from the area under the curve (hereinafter to be referred to as “AUC”) drawn by plotting the chemiluminescence value (vertical axis) relative to the measurement time (horizontal axis). The measured total value of chemiluminescence was divided by the wet weight of the vascular ring specimen and standardized to the superoxide anion production per aorta unit weight.
The inhibitory rate (%) was calculated from the following formula: inhibitory rate (%)=100−[(A−C)/(B−C)]×100
wherein A was the standardized value of chemiluminescence of diabetic rat administered with the test compound, B was the standardized value of chemiluminescence of diabetic rat without administration of the test compound, and C was the standardized value of chemiluminescence of normal rat without administration of the test compound.

The mark [6] stands for this setting: 0.1 μM added to aorta ring in vitro.
The mark [7] stands for this setting: 1 μM added to aorta ring in vitro.

With `C[C@@H](Nc1nnc(-c2ccccc2)c2ccccc12)C1CCCCC1.O=C(O)/C=C\C(=O)O` [compound A], the “inhibitory rate (%), NAD(P)H oxidase in normal rat aorta” value in experiment [1] was 1.8%. For the same compound, the “effect on superoxide anion production in normal rat” value in experiment [1] (result in words) is given as “did not affect the superoxide anion production”. The “chemiluminescence (×10^5 RLU/wet weight of aorta)” value is 3.89 ± 3.0 ×10^5 RLU/wet weight of aorta in experiment [1] (normal rat aorta, mean ± standard error); 9.1 ± 1.7 ×10^5 RLU/wet weight of aorta in experiment [3] (setting [6]); 9.2 ± 1.7 ×10^5 RLU/wet weight of aorta in experiment [3] (setting [7]); 3.8 ± 0.6 ×10^5 RLU/wet weight of aorta in experiment [5] (diabetic rat aorta, 10 mg/kg orally once a day for 3 days, mean ± standard error). The “MPO activity in myocyte” value in experiment [2] was determined as 128%*. The “inhibitory rate (%)” value in experiment [3] (setting [6]) is listed as 2.2%; in experiment [3] (setting [7]), 1.1%. In addition, the “NAD(P)H oxidase inhibitory effect on aorta ring in vitro” value in experiment [3] (result in words) was “did not show an NAD(P)H oxidase inhibitory effect”. The compound further displayed an IC50 in experiment [4] (from dose-effect line by least squares) of 6.3 nM. The “inhibitory rate (%) of IL-8 production” value in experiment [4] (test compound concentration 0.01 μM) is listed as 39.5%; in experiment [4] (test compound concentration 0.1 μM), 59.8%; in experiment [4] (test compound concentration 1 μM) it was 74%. Also, the “inhibitory rate (%), NAD(P)H oxidase in diabetic rat aorta” value was determined as 76.9% in experiment [5] (1 mg/kg oral) and 105.8% in experiment [5] (10 mg/kg oral). For the same compound, the “inhibitory rate (%), NAD(P)H oxidase activity in diabetic rat aorta (Table 2)” value in experiment [5] (10 mg/kg orally once a day for 3 days) is recorded as 105.8%.
